According to patent publication US4278676A, “Heterocyclic compounds” (H. Lundbeck & Co. A/S, priority 1977, dated 1981):
Read-outs that look alike come from different tables or passages of the source.

Experiments:
Acute toxicity (mice) = conditions: mouse, in vivo
[1] = test system: isoniazide-induced convulsions; test: Antagonism of isoniazide-induced convulsions; assay type: in vivo; conditions: Mus musculus, ip; mice, test compound i.p., isoniazide 300 mg/kg s.c.; read-out: MED (minimum effective dose), isoniazide-induced convulsions
Procedure: (c) Antagonism of isoniazide-induced convulsions (Modification (mice, two times lower concentration of isoniazide) of Mao et al.: Evidence for an involvement of GABA in the mediation of cerebellar c-GMP decrease and the anticonvulsant action of diazepam. Naunyn-Smiedeberg's Arch. Pharmacol. 1975, 289, 369-378).
Conditions and procedure for isoniazide antagonism test:
Isoniazide 300 mg/kg s.c.
Five mice are used for each dose level. Immediately after administration of test substance, isoniazide 300 mg/kg is injected s.c. This dose of isoniazide induces intermittent tonic clonic seizures within 60 minutes. The calculations are performed as on "on line procedure" on the EDP-terminal.

[2] = test system: methylphenidate-induced gnawing; test: Potentiation of methylphenidate-induced gnawing; assay type: in vivo; conditions: Mus musculus, read-out: ED50 (the dose which causes potentiation in 50% of the animals), mice
From the text: (a) Potentiation of methylphenidate-induced gnawing (Scheel-Kruger et al.: Muscimol differentially facilitates stereotypy but antagonizes motility induced by dopaminergic drugs. A complex GABA-DOPAMINE interaction. Life Sciences, 1978, Vol. 22, 75-84).

[3] = test system: morphine-induced motility; test: Antagonism of morphine-induced motility; assay type: in vivo; conditions: Mus musculus; mice; read-out: MED (minimum effective dose), morphine-induced motility
From the text: (b) Antagonism of morphine-induced motility (Christensen et al.: Muscimol antagonizes morphine hypermotility without potentiation of analgesia. European J. Pharmacol., 1978, 48, 459-462).

substantia nigra [4] = test: Bilateral injections into substantia nigra in rats; assay type: in vivo, rat
Procedure: (a) Bilateral injections. 0.1, 0.5, and 1.0 μg of Ia,HBr have been injected.

substantia nigra [5] = test: Unilateral injections into substantia nigra in rats; assay type: in vivo, rat
Procedure: (b) Unilateral injections. 0.1 and 0.5 μg of Ia,Hbr have been injected.

[6] = test system: lumbar dorsal horn interneurones and Renshaw cells; test: Microelectrophoretic experiments on central neurones of anaesthetized cats; assay type: in vivo; conditions: bicuculline methochloride (BMC), cat central neurones
Procedure: In order to study the interactions of the compound Ia with the central GABA receptors in vivo, the compound Ia was tested in microelectrophoretic experiments. Experiments were performed on lumbar dorsal horn interneurones and Renshaw cells of cats anaesthetized with pentobarbitone sodium. The approximate potency of the depressant actions of the compound was assessed relative to that of GABA on the basis of electrophoretic currents required to produce equal and submaximal inhibitions of the firing of the central neurones. The inhibitory action of Ia on central neurones was antagonized by the specific GABA antagonist bicuculline methochloride (BMC).

[7] = biological target: GABA:2-oxo-glutarate aminotransferase (Homo sapiens, UniProt P80404); test: Interaction with GABA metabolizing enzyme (aminotransferase); assay type: biochemical; conditions: concentrations of 10^-3 M
GABA:2-oxo-glutarate aminotransferase, sequence (P80404 29-500): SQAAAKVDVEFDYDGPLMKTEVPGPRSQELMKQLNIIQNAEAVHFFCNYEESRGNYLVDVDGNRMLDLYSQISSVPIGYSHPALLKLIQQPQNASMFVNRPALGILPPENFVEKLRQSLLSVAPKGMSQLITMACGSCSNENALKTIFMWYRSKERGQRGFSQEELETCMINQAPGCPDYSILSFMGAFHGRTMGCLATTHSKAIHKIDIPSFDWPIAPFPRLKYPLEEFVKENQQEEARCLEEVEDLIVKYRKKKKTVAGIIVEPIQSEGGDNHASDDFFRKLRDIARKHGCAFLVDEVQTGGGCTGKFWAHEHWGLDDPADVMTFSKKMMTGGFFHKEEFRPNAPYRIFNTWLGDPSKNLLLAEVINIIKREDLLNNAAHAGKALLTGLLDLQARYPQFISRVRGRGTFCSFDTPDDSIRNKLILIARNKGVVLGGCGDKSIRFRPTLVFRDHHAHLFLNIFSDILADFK

GABA uptake system = test: Interaction with GABA uptake system; assay type: biochemical; set-up: dose or concentration left out as unconfirmed
[8] = test system: L-glutamate 1-carboxylase; test: Interaction with GABA metabolizing enzyme (carboxylase); assay type: biochemical; conditions: concentrations of 10^-3 M
[9] = iv, read-out: Acute Toxicity (Mice) LD50 i.v.
[10] = po, read-out: Acute Toxicity (Mice) LD50 p.o.

| Structure (SMILES) | LD50 (Acute toxicity (mice); [9]) [mg/kg] | LD50 (Acute toxicity (mice); [10]) [mg/kg] | minimal effective dose [1] [mg/kg] | ED50 [2] [mg/kg] | minimal effective dose [3] [mg/kg] | Reversible antagonism by BMC [6] | also measured |
| --- | --- | --- | --- | --- | --- | --- | --- |
| NCc1cc(=O)[nH]o1 [Muscimol, muscimol] | 7 | 22 | – | – | – | – | LD50 (Acute toxicity (mice); ip, read-out: Acute Toxicity (Mice) LD50 i.p.): 12 mg/kg |
| NCc1cc(=O)[nH]o1 [Muscimol,HBr, reference compound] | – | – | 0.6 | 0.7 | 0.6 | – | – |
| Oc1noc2c1CCNC2 [Compound Ia,HBr, 3-Hydroxy-4,5,5,7-tetrahydroisoxazolo[5,4-pyridinium bromide] | 80 | > 320 | 1.3 | 3 | 1 | – | Behaviour after bilateral injection into substantia nigra (substantia nigra [4]; 0.1, 0.5 and 1.0 μg injected): pronounced stereotypic behaviour; Behaviour after unilateral injection into substantia nigra (substantia nigra [5]; 0.1 and 0.5 μg injected): strong and prolonged contralateral turning |
| NCCCC(=O)O [GABA, gamma-aminobutyric acid, reference compound] | – | – | – | – | – | yes | – |
| Oc1noc2c1CCNC2 [Ia, 4,5,6,7-Tetrahydroisoxazolo[5,4-c]pyridin-3-ol zwitterion] | – | – | – | – | – | yes | Potency compared with muscimol, bilateral injection (substantia nigra [4]; substantia nigra): weaker than muscimol; Interaction with GABA:2-oxo-glutarate aminotransferase [7]: did not interact; Potency compared with muscimol, unilateral injection (substantia nigra [5]; substantia nigra): weaker than muscimol; Interaction with the GABA uptake system (GABA uptake system): did not interact; Interaction with L-glutamate 1-carboxylase [8]: did not interact |
